Data as given in ChEMBL document CHEMBL1201862, “PubChem BioAssay data set” (2004).
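Following 48 hours of exposure in 96-well plates, responses at five concentrations were used to interpolate endpoints linearly. GI50 is the concentration that inhibits growth by half.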 Activity calls are given as the source filed them. Cut-off read from the data, not from the text of the source: active = GI50 up to about 1.1 µM and inactive = higher.

What was measured:
Assay in all cases: growth of human tumour cells (NCI), 48 h
MDA-MB-231 = tested on: MDA-MB-231
TK-10 = tested on: TK-10
NCI-H23 = tested on: NCI-H23
DU-145 = tested on: DU-145
HL-60 = tested on: HL-60
SF-539 = tested on: SF-539
786-0 = tested on: 786-0
MDA-MB-435 = tested on: MDA-MB-435
IGROV-1 = tested on: IGROV-1
U-251 = tested on: U-251
SW-620 = tested on: SW-620
A498 = tested on: A498
LOX IMVI = tested on: LOX IMVI
OVCAR-8 = tested on: OVCAR-8
MCF7 = tested on: MCF7
M14 = tested on: M14
RPMI-8226 = tested on: RPMI-8226
SF-295 = tested on: SF-295
SF-268 = tested on: SF-268
K562 = tested on: K562

Row | Structure (SMILES) | GI50 (MDA-MB-231) | GI50 (TK-10) | GI50 (NCI-H23) | GI50 (DU-145) | GI50 (HL-60) | GI50 (SF-539) | GI50 (786-0) | GI50 (MDA-MB-435) | GI50 (IGROV-1) | GI50 (U-251) | GI50 (SW-620) | GI50 (A498) | GI50 (LOX IMVI) | GI50 (OVCAR-8) | GI50 (MCF7) | GI50 (M14) | GI50 (RPMI-8226) | GI50 (SF-295) | GI50 (SF-268) | GI50 (K562)
1 | O=c1cc(-c2ccc(O)c(O)c2)oc2cc(O[C@H]3O[C@H](CO)[C@@H](O)[C@H](O)[C@H]3O)cc(O)c12 | > 100 µM (inactive) | > 100 µM (inactive) | > 100 µM (inactive) | > 100 µM (inactive) | 37.7 µM (inactive) | > 100 µM (inactive) | > 100 µM (inactive) | > 100 µM (inactive) | > 100 µM (inactive) | > 100 µM (inactive) | > 100 µM (inactive) | 78.2 µM (inactive) | 35.6 µM (inactive) | > 100 µM (inactive) | > 100 µM (inactive) | > 100 µM (inactive) | 73.5 µM (inactive) | > 100 µM (inactive) | 62.1 µM (inactive) | –
2 | CCOC(=O)c1c(SC(=O)c2ccc(Cl)cc2)n(-c2ccccc2)c(=S)n(-c2ccccc2)c1=O | > 100 µM (inactive) | > 100 µM (inactive) | > 100 µM (inactive) | > 100 µM (inactive) | > 100 µM (inactive) | > 100 µM (inactive) | > 100 µM (inactive) | > 100 µM (inactive) | > 100 µM (inactive) | > 100 µM (inactive) | > 100 µM (inactive) | > 100 µM (inactive) | > 100 µM (inactive) | > 100 µM (inactive) | > 100 µM (inactive) | > 100 µM (inactive) | – | > 100 µM (inactive) | > 100 µM (inactive) | > 100 µM (inactive)
3 | CC(=O)Nc1ccc2nc(-c3ccccn3)c(-c3ccccn3)nc2c1 | > 100 µM (inactive) | > 100 µM (inactive) | – | > 100 µM (inactive) | > 100 µM (inactive) | > 100 µM (inactive) | > 100 µM (inactive) | > 100 µM (inactive) | > 100 µM (inactive) | > 100 µM (inactive) | > 100 µM (inactive) | > 100 µM (inactive) | > 100 µM (inactive) | > 100 µM (inactive) | > 100 µM (inactive) | > 100 µM (inactive) | > 100 µM (inactive) | > 100 µM (inactive) | > 100 µM (inactive) | > 100 µM (inactive)
4 | COc1ccc(-c2nc(Nc3ccccc3)sc2Cc2sc(Nc3ccccc3)nc2-c2ccc(OC)cc2)cc1 | > 100 µM (inactive) | > 100 µM (inactive) | 37.7 µM (inactive) | > 100 µM (inactive) | 0.787 µM (active) | > 100 µM (inactive) | 98.9 µM (inactive) | 52.4 µM (inactive) | > 100 µM (inactive) | > 100 µM (inactive) | 67.5 µM (inactive) | 25.2 µM (inactive) | 15.5 µM (inactive) | > 100 µM (inactive) | 8.05 µM (inactive) | – | 1.8 µM (inactive) | > 10 µM (inactive) | > 100 µM (inactive) | 5.18 µM (inactive)
5 | CCOc1cc(NC(C)=O)ccc1C(=O)NN1C(=O)CSC1c1ccccc1 (centres undefined) | > 100 µM (inactive) | 48.8 µM (inactive) | 66.7 µM (inactive) | > 100 µM (inactive) | 33.5 µM (inactive) | > 100 µM (inactive) | > 100 µM (inactive) | > 100 µM (inactive) | > 100 µM (inactive) | – | > 100 µM (inactive) | > 100 µM (inactive) | > 100 µM (inactive) | 48 µM (inactive) | 78.5 µM (inactive) | > 100 µM (inactive) | 26.1 µM (inactive) | 45.2 µM (inactive) | > 100 µM (inactive) | 28.8 µM (inactive)
6 | CC(C)OC(=O)C1=C2c3ncccc3C(=O)N2[C@@H](Cl)[C@H](Cl)[C@H]1Cl | > 100 µM (inactive) | > 100 µM (inactive) | 46.2 µM (inactive) | > 100 µM (inactive) | 38.2 µM (inactive) | > 100 µM (inactive) | 55.2 µM (inactive) | 81.1 µM (inactive) | 31.1 µM (inactive) | 56.8 µM (inactive) | 34.6 µM (inactive) | > 100 µM (inactive) | 68.9 µM (inactive) | 31.7 µM (inactive) | 39.1 µM (inactive) | > 100 µM (inactive) | 21.8 µM (inactive) | > 100 µM (inactive) | 47.9 µM (inactive) | 30.5 µM (inactive)
7 | O=C(N/N=C/c1ccc(Cl)cc1)c1cc(I)cc(I)c1O | > 100 µM (inactive) | > 100 µM (inactive) | > 100 µM (inactive) | > 100 µM (inactive) | > 100 µM (inactive) | > 100 µM (inactive) | > 100 µM (inactive) | > 100 µM (inactive) | > 100 µM (inactive) | > 100 µM (inactive) | > 100 µM (inactive) | 33.3 µM (inactive) | > 100 µM (inactive) | > 100 µM (inactive) | > 100 µM (inactive) | > 100 µM (inactive) | > 100 µM (inactive) | > 100 µM (inactive) | – | > 100 µM (inactive)
8 | O=c1nc2n(cc1/C=C\Br)C1CC(O)C(CO2)O1 (centres undefined) | > 100 µM (inactive) | > 100 µM (inactive) | > 100 µM (inactive) | > 100 µM (inactive) | 0.792 µM (active) | 38.4 µM (inactive) | > 100 µM (inactive) | > 100 µM (inactive) | > 100 µM (inactive) | > 100 µM (inactive) | > 100 µM (inactive) | 49.9 µM (inactive) | > 100 µM (inactive) | > 100 µM (inactive) | > 100 µM (inactive) | – | > 100 µM (inactive) | > 100 µM (inactive) | > 100 µM (inactive) | 5.16 µM (inactive)
9 | CSc1ncc2c(n1)-c1ccccc1OC2N1CCCC1 (centres undefined) | > 100 µM (inactive) | 44.1 µM (inactive) | > 100 µM (inactive) | > 100 µM (inactive) | 52.7 µM (inactive) | 84.5 µM (inactive) | > 100 µM (inactive) | > 100 µM (inactive) | 47.8 µM (inactive) | 68.5 µM (inactive) | 94.8 µM (inactive) | 11.8 µM (inactive) | > 100 µM (inactive) | > 100 µM (inactive) | 71.3 µM (inactive) | > 100 µM (inactive) | 50.9 µM (inactive) | > 100 µM (inactive) | > 100 µM (inactive) | 60.1 µM (inactive)
10 | N=C(N)NCCCC(NC(=O)OCCCCCCn1ccc(N)nc1=O)C(=O)O (centres undefined) | > 100 µM (inactive) | > 100 µM (inactive) | > 100 µM (inactive) | > 100 µM (inactive) | > 100 µM (inactive) | > 100 µM (inactive) | > 100 µM (inactive) | > 100 µM (inactive) | > 100 µM (inactive) | > 100 µM (inactive) | > 100 µM (inactive) | > 100 µM (inactive) | > 100 µM (inactive) | – | > 100 µM (inactive) | > 100 µM (inactive) | > 100 µM (inactive) | > 100 µM (inactive) | > 100 µM (inactive) | > 100 µM (inactive)
11 | Brc1c(C#CCC(c2ccccc2)(c2ccccc2)c2ccccc2)ccc(C#CCC(c2ccccc2)(c2ccccc2)c2ccccc2)c1Br | > 100 µM (inactive) | > 100 µM (inactive) | > 100 µM (inactive) | > 100 µM (inactive) | > 100 µM (inactive) | > 100 µM (inactive) | > 100 µM (inactive) | > 100 µM (inactive) | > 100 µM (inactive) | > 100 µM (inactive) | > 100 µM (inactive) | > 100 µM (inactive) | – | > 100 µM (inactive) | > 100 µM (inactive) | > 100 µM (inactive) | > 100 µM (inactive) | > 100 µM (inactive) | > 100 µM (inactive) | > 100 µM (inactive)
12 | CC1=C(C(=O)NC(C)(C)C)CC(C(=O)NC(C)(C)C)C(C)N1 (centres undefined) | > 100 µM (inactive) | > 100 µM (inactive) | > 100 µM (inactive) | > 100 µM (inactive) | > 100 µM (inactive) | > 100 µM (inactive) | > 100 µM (inactive) | 93.8 µM (inactive) | > 100 µM (inactive) | > 100 µM (inactive) | > 100 µM (inactive) | 73.1 µM (inactive) | > 100 µM (inactive) | > 100 µM (inactive) | > 100 µM (inactive) | > 100 µM (inactive) | > 100 µM (inactive) | > 100 µM (inactive) | > 100 µM (inactive) | > 100 µM (inactive)
13 | CCN(CC)CCN1C(=O)C(=O)N(c2cccc3ccccc23)C1=O | > 10 µM (inactive) | > 10 µM (inactive) | > 10 µM (inactive) | > 10 µM (inactive) | > 10 µM (inactive) | > 10 µM (inactive) | – | > 10 µM (inactive) | > 10 µM (inactive) | > 10 µM (inactive) | > 10 µM (inactive) | > 10 µM (inactive) | > 10 µM (inactive) | > 10 µM (inactive) | > 10 µM (inactive) | > 10 µM (inactive) | > 10 µM (inactive) | > 10 µM (inactive) | > 10 µM (inactive) | > 10 µM (inactive)
14 | O=c1[nH]c(=O)n(C2OC(CO)C(O)C2O)cc1Oc1ccccc1 (centres undefined) | > 100 µM (inactive) | > 100 µM (inactive) | > 100 µM (inactive) | > 100 µM (inactive) | > 100 µM (inactive) | > 100 µM (inactive) | > 100 µM (inactive) | > 100 µM (inactive) | > 100 µM (inactive) | > 100 µM (inactive) | > 100 µM (inactive) | > 100 µM (inactive) | > 100 µM (inactive) | > 100 µM (inactive) | > 100 µM (inactive) | > 100 µM (inactive) | – | > 100 µM (inactive) | > 100 µM (inactive) | > 100 µM (inactive)
